The numbers were not newly measured in US20090252757A1, “METHODS AND COMPOSITIONS FOR INHIBITING HIV INFECTION” (IRM LLC, priority 2005, published 2009), which cites them from elsewhere.

In the data set the target is MLK3 (Homo sapiens, UniProt Q16584). The settings on record: Roux et al., J. Biol. Chem. 277:49473-80, 2002.
Sequence of MLK3 (Q16584 whole entry): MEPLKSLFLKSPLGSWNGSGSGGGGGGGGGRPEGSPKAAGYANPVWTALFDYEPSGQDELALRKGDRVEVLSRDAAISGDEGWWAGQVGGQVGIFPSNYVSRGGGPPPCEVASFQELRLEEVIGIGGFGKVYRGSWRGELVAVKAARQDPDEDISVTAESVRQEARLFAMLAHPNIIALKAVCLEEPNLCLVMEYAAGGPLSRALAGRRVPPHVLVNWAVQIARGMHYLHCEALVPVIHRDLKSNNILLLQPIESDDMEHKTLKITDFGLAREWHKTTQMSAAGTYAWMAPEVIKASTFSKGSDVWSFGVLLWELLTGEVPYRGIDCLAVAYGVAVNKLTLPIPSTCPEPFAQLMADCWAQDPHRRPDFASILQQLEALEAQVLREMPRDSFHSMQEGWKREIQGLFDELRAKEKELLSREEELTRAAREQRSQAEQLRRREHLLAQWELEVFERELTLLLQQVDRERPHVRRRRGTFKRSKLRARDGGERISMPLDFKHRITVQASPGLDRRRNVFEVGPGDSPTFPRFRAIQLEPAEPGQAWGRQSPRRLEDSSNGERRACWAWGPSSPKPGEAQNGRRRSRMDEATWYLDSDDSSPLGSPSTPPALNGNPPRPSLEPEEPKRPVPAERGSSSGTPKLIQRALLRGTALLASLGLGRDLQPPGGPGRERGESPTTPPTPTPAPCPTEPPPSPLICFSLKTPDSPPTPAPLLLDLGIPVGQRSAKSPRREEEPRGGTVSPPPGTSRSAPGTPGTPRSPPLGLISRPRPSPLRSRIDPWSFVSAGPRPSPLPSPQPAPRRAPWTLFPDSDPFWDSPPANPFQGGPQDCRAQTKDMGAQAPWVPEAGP

Regarding `CCSCc1ccc2c(c1)c1c3c(c4c5cc(CSCC)ccc5n5c4c1n2[C@H]1C[C@](O)(C(=O)OC)[C@]5(C)O1)CNC3=O` [CEP1347], the “inhibition of MLK3 kinase activity” value is reported as “inhibit the kinase activity of MLK3”.
